In one data set the target is c-Kit kinase (Homo sapiens, UniProt P10721). In words: Enzyme activity assay (c-Kit kinase). The data set is classed as biochemical. As to the method:
Biological activity tests were performed on partial compounds synthesized in the above examples and comparative examples below. […]

Data set [1] in a line: Preclinical pharmacokinetic test in rats. It counts as in vivo. The settings on record: rat, po; male SD rats, intragastric administration (p.o.), 10 mg/kg, plasma. As to the method:
Healthy adult SD rats, male, aged 6-8 weeks, with a body weight of 200-300 g, purchased from Vital River Company; EDTA-Na2 anticoagulant; and analytical balance, animal weighing scale, magnetic stirrer, refrigerated centrifuge, single-channel manual pipette, and the like.
• 1. Drug preparation: approximately 10 mg of the test sample was accurately weighed and dissolved in 5% DMSO (after conversion), and then 10% solutol HS-15 and 85% normal saline were added. The mixture was subjected to ultrasonic processing and mixed by vortexing to obtain a solution at a concentration of 1 mg/mL, which was freshly prepared before use. 0.2 mL of the sample was transferred into a 1.5 mL centrifuge tube and stored at -80°C for administration solution concentration analysis. • 2. Animal preparation: the rats were fed in rat cages, and fasted (for at least 10 hours) with free access to water one day before the experiment. On the day of experiment, the rats were weighed and marked at the tail respectively. Blank blood samples were collected respectively before drug administration. The blood samples were collected via the tail vein. • 3. Drug administration: • administration route: intragastric administration (p.o.); • administration dose: 10 mg/kg; • administration volume: 10 mL/kg; and • operation procedure: the rat was restrained in an upright position with a left hand wearing bite-resistant gloves, a 16-gauge gavage needle was inserted through the oral cavity into the pharynx and advanced without obvious resistance, and then the drug was then injected into the stomach. • 4. Sample collection: whole blood (0.1 mL) was collected from each test animal before drug administration and at 0.5 hours, 1 hour, 2 hours, 4 hours, 6 hours, 8 hours, 12 hours and 24 hours after drug administration, transferred into EDTA-Na2 anticoagulant tubes, mixed evenly by inverting the tubes 3-4 times, and then centrifuged at 10000 g and 4°C for 5 minutes to separate plasma. The obtained plasma samples were stored at -80°C for later analysis. The blood samples were collected via the tail vein.
Specific operation: the rat was secured in a restrainer to fully expose its tail, the tail was wiped with alcohol to make the surface skin absorb the alcohol, so as to induce obvious venous dilation. A suitable vein was selected from two sides, and the needle was inserted at approximately one-third of the distance from the tail tip. An insulin syringe was used as the injection syringe, the needle was inserted with the bevel facing upward, and the needle was immediately adjusted to a parallel position after piercing the skin. Slight sliding resistance of the needle inside the vessel and blood reflux in the injection syringe indicated successful venous access. Approximately 0.1-0.2 mL of whole blood was drawn. Gentle compression was applied for hemostasis after needle removal.
Preparation of standard curve sample: 25 µL of blank rat plasma was transferred into a centrifuge tube respectively, 25 µL of prepared serial standard solution (prepared in methanol) was added, and then 200 µL of internal standard solution (prepared in methanol) was added. The mixture was mixed by vortexing for 2 minutes, and centrifuged at 10000 g and 4°C for 10 minutes.
Treatment of the unknown plasma sample: 25 µL of drug-containing rat plasma was collected respectively, and then 25 µL of methanol and 200 µL of internal standard solution were added sequentially. The mixture was mixed by vortexing for 2 minutes, and centrifuged at 10000 g and 4°C for 10 minutes. The supernatant was collected for LC/MS/MS detection.
A quantitative detection method for the test compound was established by using a Shimadzu liquid chromatography system and a Triple Quad TM 6500+AB mass spectrometer. A concentration of a parent drug in plasma was determined. Plasma concentration-time curves were plotted, and major pharmacokinetic parameters were calculated via a non-compartmental model in winnonlin Phoenix software. […]

Data set [2] is described as follows: Brain-penetrating pharmacokinetic test. It counts as in vivo, Sprague-Dawley (SD) rat. Conditions: SD rats, p.o., 10 mg/kg, single administration; for Kp: Sprague-Dawley, rat, brain tissue / plasma, po, read-out: Total drug brain-to-plasma ratio (B/P). On the procedure: Administration vehicle: 5% DMSO+10% Solutol HS15+85% normal saline
Formulation preparation process: an appropriate amount of powder was weighed, an appropriate volume of DMSO was added, and the mixture was mixed by vortexing. Subsequently, an appropriate volume of Solutol solution was added and vortexed, then normal saline was added, and the mixture was subjected to vortexing and ultrasonic processing to form a homogeneous and clear formulation solution.
The experimental animals were fed in an animal room. The animal room was equipped with an air-conditioning system, with adequate ventilation, an indoor temperature was maintained at 20-26°C, and a relative humidity was maintained at 40%-70%. Artificial lighting was applied in the animal room, with a 12-hour light/dark cycle (except for working lights turned on during experimental operations and cleaning). The experimental animals had free access to food and water.
The purchased animals were fed normally for at least 3 days, rats with healthy physical conditions were included in the experiment, and each rat was marked with a tail number. Animals in an oral administration group were fasted overnight one day before drug administration, and fed 4 hours after drug administration, with free access to water.
• Administration route: intragastric administration (p.o.) • Administration concentration: 1 mg/mL • Administration dose: 10 mg/kg • Administration volume: 10 mL/kg • Administration frequency: single administration
Before drug administration, a state of the administration formulation was examined, the homogeneity of the formulation was ensured by vortexing, stirring or shaking, and a theoretical administration volume for each SD rat in every group was calculated according to the following formula. Theoretical; administration volume(mL) = (Dose (mg⋅kg^−1))/(Formulation; concentration(mg⋅mL^−1)) × Body; weight(kg) [formula]
The rats were sampled at 1 hour, 2 hours, 4 hours, 6 hours, 8 hours and 24 hours after drug administration.
Plasma: at each time point, 0.25 mL of whole blood was collected from the jugular vein and transferred into a test tube containing an anticoagulant EDTA-K2 (7 µL, 10% EDTA-K2 solution), placed on wet ice, and centrifuged within 1 hour (2,000 g, 2-8°C, 10 minutes), and then, the plasma was taken. The plasma was stored in a pre-chilled centrifuge tube, rapidly frozen in dry ice, and then stored in an ultra-low temperature refrigerator at -60°C or lower until LC-MS/MS analysis.
Cerebrospinal fluid: the rats were euthanized via a carbon dioxide process, and approximately 60 µL of cerebrospinal fluid was collected by puncture. 1 mL syringe was used, with the bevel of the needle facing upward, the needle tip was inserted into the subarachnoid space in a nearly horizontal position, then the needle was fixed, and the cerebrospinal fluid was slowly aspirated. The collected samples were frozen on dry ice within 30 minutes, and then transferred to an environment at -90°C to -60°C.
Brain tissue: cardiac perfusion was performed first, and then the brain tissue was isolated. Under deep terminal anesthesia, approximately 80 mL of normal saline was used for cardiac perfusion, and residual blood in the brain tissue was flushed out of cerebral circulation. The isolated brain tissue was gently rinsed once with ice-cold normal saline, excess water was removed, weighed, and then transferred to a frozen storage environment at -90°C to -60°C.
A quantitative detection method for the test compound was established by using a Shimadzu liquid chromatography system and a Triple Quad TM 6500+AB mass spectrometer. A concentration of a parent drug in a sample was analyzed. Quality control samples were used for variation control over analysis results, and the accuracy of the quality control samples should fall within the range of 80%-120%.
Pharmacokinetic parameters: Tmax, Cmax, AUC (0-t), AUC (0-∞), T1/2, MRT (0-∞), and the like were calculated by using winnonlin Phoenix 8.1.0.3530. […]

The values that follow come from patent EP4818163A1, “POLYCYCLIC COMPOUND AND USE THEREOF” (Zhejiang Jingke Pharmaceuticals Co., Ltd., priority 2023, dated 2025).

Sequence of c-Kit kinase (P10721 26-976): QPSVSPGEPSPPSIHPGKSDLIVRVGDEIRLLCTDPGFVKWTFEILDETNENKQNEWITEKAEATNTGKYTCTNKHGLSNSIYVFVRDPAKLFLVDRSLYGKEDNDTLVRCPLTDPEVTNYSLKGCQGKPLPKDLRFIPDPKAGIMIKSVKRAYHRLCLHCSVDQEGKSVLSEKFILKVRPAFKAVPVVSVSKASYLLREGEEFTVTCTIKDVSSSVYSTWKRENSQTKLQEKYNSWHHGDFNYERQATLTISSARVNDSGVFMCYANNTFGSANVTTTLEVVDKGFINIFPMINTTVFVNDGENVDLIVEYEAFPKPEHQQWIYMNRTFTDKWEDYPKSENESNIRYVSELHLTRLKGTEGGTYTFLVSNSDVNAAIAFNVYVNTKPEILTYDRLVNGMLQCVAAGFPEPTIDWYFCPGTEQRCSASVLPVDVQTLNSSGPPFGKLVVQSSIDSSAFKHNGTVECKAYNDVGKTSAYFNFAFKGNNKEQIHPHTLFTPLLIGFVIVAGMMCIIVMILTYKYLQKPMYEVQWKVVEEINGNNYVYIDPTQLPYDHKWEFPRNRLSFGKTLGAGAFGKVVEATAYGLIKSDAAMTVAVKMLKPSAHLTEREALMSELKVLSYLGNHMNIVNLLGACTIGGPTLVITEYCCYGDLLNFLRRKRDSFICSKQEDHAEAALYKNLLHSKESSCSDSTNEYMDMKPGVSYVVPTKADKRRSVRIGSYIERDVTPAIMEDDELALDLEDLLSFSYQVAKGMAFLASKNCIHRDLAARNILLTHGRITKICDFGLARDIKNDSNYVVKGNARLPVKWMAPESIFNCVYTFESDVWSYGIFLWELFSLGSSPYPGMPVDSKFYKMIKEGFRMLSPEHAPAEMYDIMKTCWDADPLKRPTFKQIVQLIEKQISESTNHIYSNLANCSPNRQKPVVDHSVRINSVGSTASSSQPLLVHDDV

Regarding `[2H]C([2H])([2H])N1CCN(C([2H])([2H])c2ccc(C(=O)Nc3ccc(C(F)(F)F)c(Nc4nc(-c5cccnc5)cs4)c3)c(F)c2)CC1` [Compound T-18], the IC50 (commonly the midpoint of a concentration-inhibition curve) at c-Kit kinase came to 3.12 nM. Moreover, in data set [1], the exposure (AUC) (as a rule, the area under the concentration-time curve, a measure of exposure) is 4000 ng·h/mL and the maximum concentration (Cmax) (as a rule, the highest concentration seen after dosing) turned out to be 501 ng/mL.

In the case of `[2H]C([2H])(c1ccc(C(=O)Nc2ccc(C(F)(F)F)c(Nc3nc(-c4cccnc4)cs3)c2)c(F)c1)N1CCN(C)CC1` [Compound T-21], in data set [2], the “Total drug concentration in brain tissue” value came out at 2763.22 ng·h/mL, the “Total drug concentration in plasma” value was found to be 3891.87 ng·h/mL and the Kp came to 0.71. The compound further displayed a 50% inhibitory concentration (IC50) against c-Kit kinase of 1.36 nM.

In data set [1], `[2H]C([2H])(c1ccc(C(=O)Nc2ccc(C)c(Nc3nc(-c4cccnc4)cs3)c2)cc1)N1CCN(C)CC1` [Compound T-02] displayed an AUC of 2370 ng·h/mL and a Cmax of 397 ng/mL.

Regarding `[2H]C([2H])(c1ccc(C(=O)Nc2ccc(C(F)(F)F)c(Nc3nc(-c4ccc(F)nc4)cs3)c2)c(F)c1)N1CCN(C)CC1` [Compound T-16], in data set [2], the “Total drug concentration in brain tissue” value is 3129.79 ng·h/mL, the “Total drug concentration in plasma” value amounted to 4012.56 ng·h/mL and the Kp stood at 0.78. The compound further showed a half-maximal inhibitory concentration (IC50) against c-Kit kinase of 2.12 nM. In data set [1], the AUC turned out to be 4010 ng·h/mL and the peak concentration (Cmax) is 516 ng/mL.

As for `[2H]C([2H])([2H])N1CCN(Cc2ccc(C(=O)Nc3ccc(C)c(Nc4nc(-c5cccnc5)cs4)c3)c(F)c2)CC1` [Compound T-01], in data set [2], the “Total drug concentration in brain tissue” value amounted to 1370.43 ng·h/mL, the “Total drug concentration in plasma” value is 2687.12 ng·h/mL and the Kp is 0.51. This compound displayed a half-maximal inhibitory concentration (IC50) against c-Kit kinase of 1.67 nM. In data set [1], this compound gave an exposure (AUC) of 2690 ng·h/mL and a peak concentration (Cmax) of 419 ng/mL.

In the case of `[2H]C([2H])([2H])N1CCN(C([2H])([2H])c2ccc(C(=O)Nc3ccc(C)c(Nc4nc(-c5cccnc5)cs4)c3)cc2)CC1` [Compound T-04], in data set [1], the AUC turned out to be 3260 ng·h/mL and the highest level (Cmax) was 486 ng/mL.

Compound `[2H]C([2H])([2H])N1CCN(C([2H])([2H])c2ccc(C(=O)Nc3ccc(C(F)(F)F)c(Nc4nc(-c5ccc(F)nc5)cs4)c3)c(F)c2)CC1` [Compound T-17] came in with a half-inhibitory concentration (IC50) on c-Kit kinase of 1.35 nM. In data set [1], this compound yielded an AUC of 4290 ng·h/mL and a Cmax of 533 ng/mL.

For the compound `[2H]C([2H])(c1ccc(C(=O)Nc2ccc(C(F)(F)F)c(Nc3nc(-c4cccnc4)cs3)c2)cc1)N1CCN(C)CC1` [Compound T-12], the half-inhibitory concentration (IC50) on c-Kit kinase is 2.13 nM.

Turning to `[2H]C([2H])([2H])N1CCN(Cc2ccc(C(=O)Nc3ccc(C(F)(F)F)c(Nc4nc(-c5cccnc5)cs4)c3)c(F)c2)CC1` [Compound T-20], in data set [2], the “Total drug concentration in brain tissue” value was found to be 3092.40 ng·h/mL, the “Total drug concentration in plasma” value worked out at 4123.20 ng·h/mL and the Kp came out at 0.75. Further, the IC50 against c-Kit kinase stood at 2.1 nM.

At c-Kit kinase, `[2H]C([2H])(c1ccc(C(=O)Nc2ccc(C(F)(F)F)c(Nc3nc(-c4ccc(F)nc4)cs3)c2)cc1)N1CCN(C)CC1` [Compound T-11] showed an IC50 of 3.55 nM.

With `Cc1ccc(NC(=O)c2ccc(CN3CCN(C)CC3)cc2)cc1Nc1nc(-c2cccnc2)cs1` [Masitinib, reference compound], in data set [2], the “Total drug concentration in brain tissue” value was determined as 356.98 ng·h/mL, the “Total drug concentration in plasma” value is 1771.48 ng·h/mL and the Kp was found to be 0.2. Moreover, in data set [1], the AUC turned out to be 1770 ng·h/mL and the peak level (Cmax) was 321 ng/mL.

For `[2H]C([2H])([2H])N1CCN(C([2H])([2H])c2ccc(C(=O)Nc3ccc(C)c(Nc4nc(-c5cccnc5)cs4)c3)c(F)c2)CC1` [Compound T-08], in data set [2], the “Total drug concentration in brain tissue” value was determined as 1798.12 ng·h/mL, the “Total drug concentration in plasma” value worked out at 3269.32 ng·h/mL and the Kp was 0.55. Further, the concentration for half-maximal inhibition (IC50) against c-Kit kinase was 3.89 nM.

At c-Kit kinase, `[2H]C([2H])([2H])N1CCN(Cc2ccc(C(=O)Nc3ccc(C(F)(F)F)c(Nc4nc(-c5ccc(F)nc5)cs4)c3)c(F)c2)CC1` [Compound T-19] showed a concentration for half-maximal inhibition (IC50) of 2.11 nM.

In turn, `[2H]C([2H])([2H])N1CCN(C([2H])([2H])c2ccc(C(=O)Nc3ccc(C(F)(F)F)c(Nc4nc(-c5cccnc5)cs4)c3)cc2)CC1` [Compound T-15] gave an IC50 at c-Kit kinase of 3.56 nM.
